# According to ChEMBL document CHEMBL5120890, “Untapped Pharmaceutical Potential of 4,5,4'-Trihydroxy-3,3'-dimethoxybibenzyl for Regulating Obesity: A Cell-Based Study with a Focus on Terminal Differentiation in Adipogenesis” (J Nat Prod, 2022):
# Calls of active or inactive are those of the source. The calls are words filed in the database; no cut-off is given here.
# Legend:
# [1] = biological target: T1, 5'-AMP-activated protein kinase (Mus musculus) (UniProt Q5EG47+Q8BRK8+Q6PAM0+O54950+Q91WG5+Q9R078+Q8BGM7); assay: Activation of AMPK in mouse 3T3-L1 cells assessed as increase in AMPKbeta phosphorylation in early differentiation at 0.5 to 5 uM after 48 hrs by Western blot analysis; assay type: cell-based; settings: filed as activator, dose 0.5-5 µM
# [2] = biological target: T1, 5'-AMP-activated protein kinase (Mus musculus); assay: Activation of AMPK in mouse 3T3-L1 cells assessed as increase in AMPKalpha phosphorylation in early differentiation at 0.5 to 5 uM after 48 hrs by Western blot analysis; assay type: cell-based; settings: filed as activator, dose 0.5-5 µM
# [3] = system: 3T3-L1; assay: Inhibition of AKT/GSK3beta signalling pathway in mouse 3T3-L1 cells assessed as reduction in GSK3beta phosphorylation in early differentiation at 0.5 to 5 uM after 48 hrs by Western blot analysis; assay type: cell-based; settings: dose 0.5-5 µM
# [4] = (§1) Cytotoxicity against mouse 3T3-L1 pre-adipocytes assessed as reduction in cell viability after 48 hrs by MTT assay; assay type: toxicity, cell-based; settings: 3T3-L1 pre-adipocytes
# [5] = system: 3T3-L1; assay: as §1; assay type: toxicity, cell-based; settings: 3t3-l1, 48 h, time 48 hrs
# [6] = (§2) Cytotoxicity against mouse 3T3-L1 adipocytes assessed as reduction in cell viability after 48 hrs by MTT assay; assay type: toxicity, cell-based; settings: 3T3-L1 adipocytes
# [7] = system: 3T3-L1; assay: as §2; assay type: toxicity, cell-based; settings: 3t3-l1, 48 h, time 48 hrs
# [8] = Cytotoxicity against human PCS-210-010 pre-adipocytes assessed as reduction in cell viability after 48 hrs by MTT assay; assay type: toxicity, cell-based
# [9] = Cytotoxicity against human PCS-210-010 adipocytes assessed as reduction in cell viability after 48 hrs by MTT assay; assay type: toxicity, cell-based
# [10] = system: 3T3-L1; assay: Cytotoxicity against mouse 3T3-L1 pre-adipocytes assessed as reduction in cell viability at >=10 uM after 48 hrs by MTT assay; assay type: toxicity, cell-based; settings: 3t3-l1, 48 h
# [11] = Cytotoxicity against human PCS-210-010 pre-adipocytes assessed as reduction in cell viability at >=10 uM after 48 hrs by MTT assay; assay type: toxicity, cell-based; settings: pcs-210-010, 48 h
# [12] = system: 3T3-L1; assay: Cytotoxicity against mouse 3T3-L1 pre-adipocytes assessed as reduction in cell viability at >=25 uM after 48 hrs by MTT assay; assay type: toxicity, cell-based; settings: 3t3-l1, 48 h
# [13] = Cytotoxicity against human PCS-210-010 pre-adipocytes assessed as reduction in cell viability at >=25 uM after 48 hrs by MTT assay; assay type: toxicity, cell-based; settings: pcs-210-010, 48 h
# [14] = system: 3T3-L1; assay: Induction of apoptosis in mouse 3T3-L1 pre-adipocytes at 0.5 to 5 uM after 48 hrs by PI/Hoechst 33342 staining based fluorescence microscopic analysis; assay type: functional, cell-based; settings: dose 0.5-5 µM
# [15] = system: 3T3-L1; assay: Induction of apoptosis in mouse 3T3-L1 adipocytes at 0.5 to 5 uM after 48 hrs by PI/Hoechst 33342 staining based fluorescence microscopic analysis; assay type: functional, cell-based; settings: dose 0.5-5 µM
# [16] = system: PCS-210-010; assay: Induction of apoptosis in human PCS-210-010 pre-adipocytes at 0.5 to 5 uM after 48 hrs by PI/Hoechst 33342 staining based fluorescence microscopic analysis; assay type: functional, cell-based; settings: dose 0.5-5 µM
# [17] = system: PCS-210-010; assay: Induction of apoptosis in human PCS-210-010 adipocytes at 0.5 to 5 uM after 48 hrs by PI/Hoechst 33342 staining based fluorescence microscopic analysis; assay type: functional, cell-based; settings: dose 0.5-5 µM
# [18] = system: 3T3-L1; assay: Inhibition of preadipocyte differentiation in mouse 3T3-L1 cells assessed as reduction in lipid droplet accumulation in early differentiation at 0.5 to 5 uM incubated for 8 days by Oil Red O staining based inverted optical microscopic analysis; assay type: functional, cell-based; settings: dose 0.5-5 µM, time 8.0 day
# [19] = system: 3T3-L1; assay: Inhibition of preadipocyte differentiation in mouse 3T3-L1 cells assessed as reduction in lipid droplet accumulation in maturation at 0.5 to 5 uM incubated for 8 days by Oil Red O staining based inverted optical microscopic analysis; assay type: functional, cell-based; settings: dose 0.5-5 µM, time 8.0 day
# [20] = system: PCS-210-010; assay: Inhibition of preadipocyte differentiation in human PCS-210-010 cells assessed as reduction in lipid droplet accumulation in early differentiation at 0.5 to 5 uM incubated for 8 days by Oil Red O staining based inverted optical microscopic analysis; assay type: functional, cell-based; settings: dose 0.5-5 µM, time 8.0 day
# [21] = system: PCS-210-010; assay: Inhibition of preadipocyte differentiation in human PCS-210-010 cells assessed as reduction in lipid droplet accumulation in maturation at 0.5 to 5 uM incubated for 8 days by Oil Red O staining based inverted optical microscopic analysis; assay type: functional, cell-based; settings: dose 0.5-5 µM, time 8.0 day
# [22] = system: 3T3-L1; assay: Inhibition of preadipocyte differentiation in mouse 3T3-L1 cells assessed as reduction in triglyceride accumulation in early differentiation at 0.5 to 5 uM incubated for 8 days by colorimetric assay; assay type: functional, cell-based; settings: dose 0.5-5 µM, time 8.0 day, DDE = dose-dependent effect
# [23] = system: 3T3-L1; assay: Inhibition of preadipocyte differentiation in mouse 3T3-L1 cells assessed as reduction in triglyceride accumulation in maturation at 0.5 to 5 uM incubated for 8 days by colorimetric assay; assay type: functional, cell-based; settings: dose 0.5-5 µM, time 8.0 day, DDE = dose-dependent effect
# [24] = system: PCS-210-010; assay: Inhibition of preadipocyte differentiation in human PCS-210-010 cells assessed as reduction in triglyceride accumulation in early differentiation at 0.5 to 5 uM incubated for 8 days by colorimetric assay; assay type: functional, cell-based; settings: dose 0.5-5 µM, time 8.0 day, DDE = dose-dependent effect
# [25] = system: PCS-210-010; assay: Inhibition of preadipocyte differentiation in human PCS-210-010 cells assessed as reduction in triglyceride accumulation in maturation at 0.5 to 5 uM incubated for 8 days by colorimetric assay; assay type: functional, cell-based; settings: dose 0.5-5 µM, time 8.0 day, DDE = dose-dependent effect
# [26] = system: 3T3-L1; assay: Inhibition of preadipocyte differentiation in mouse 3T3-L1 cells assessed as increase in glycerol release in early differentiation at 0.5 to 5 uM incubated for 8 days by colorimetric assay; assay type: functional, cell-based; settings: dose 0.5-5 µM, time 8.0 day, DDE = dose-dependent effect
# [27] = system: 3T3-L1; assay: Inhibition of preadipocyte differentiation in mouse 3T3-L1 cells assessed as increase in glycerol release in maturation at 0.5 to 5 uM incubated for 8 days by colorimetric assay; assay type: functional, cell-based; settings: dose 0.5-5 µM, time 8.0 day, DDE = dose-dependent effect
# [28] = system: PCS-210-010; assay: Inhibition of preadipocyte differentiation in human PCS-210-010 cells assessed as increase in glycerol release in early differentiation at 0.5 to 5 uM incubated for 8 days by colorimetric assay; assay type: functional, cell-based; settings: dose 0.5-5 µM, time 8.0 day, DDE = dose-dependent effect
# [29] = system: PCS-210-010; assay: Inhibition of preadipocyte differentiation in human PCS-210-010 cells assessed as increase in glycerol release in maturation at 0.5 to 5 uM incubated for 8 days by colorimetric assay; assay type: functional, cell-based; settings: dose 0.5-5 µM, time 8.0 day, DDE = dose-dependent effect
# [30] = system: 3T3-L1; assay: Down regulation of FAS protein expression in mouse 3T3-L1 cells in early differentiation at 0.5 to 5 uM after 8 days by western blot analysis; assay type: functional, cell-based; settings: dose 0.5-5 µM, time 8.0 day
# [31] = system: 3T3-L1; assay: Antiproliferative activity against mouse 3T3-L1 cells assessed as reduction in cell proliferation at 0.5 to 5 uM after 24 to 72 hrs by crystal violet staining based assay; assay type: functional; settings: dose 0.5-5 µM, time 24-72 hrs
# [32] = system: 3T3-L1; assay: Down regulation of Cyclin D1 protein expression in mouse 3T3-L1 cells at 0.5 to 5 uM after 18 hrs by western blot analysis; assay type: functional, cell-based; settings: dose 0.5-5 µM
# [33] = system: 3T3-L1; assay: Effect on Cyclin D3 protein expression in mouse 3T3-L1 cells at 0.5 to 5 uM after 18 hrs by western blot analysis; assay type: functional, cell-based; settings: dose 0.5-5 µM
# [34] = system: 3T3-L1; assay: Down regulation of CDK6 protein expression in mouse 3T3-L1 cells at 0.5 to 5 uM after 18 hrs by western blot analysis; assay type: functional, cell-based; settings: dose 0.5-5 µM
structure (smiles),measurement,setting,value
COc1cc(CCc2cc(O)c(O)c(OC)c2)ccc1O,Activity,[1],Active
same,Activity,[2],Active
same,inhibition,[3],Active
same,IC50 at 48 h,[4],35.5 µM
same,Activity,[5],Toxic
same,IC50 at 48 h,[6],72.4 µM
same,Activity,[7],Toxic
same,IC50 at 48 h,[8]; PCS-210-010 pre-adipocytes,34.6 µM
same,Activity,"[8]; pcs-210-010, 48 h, time 48 hrs",Toxic
same,IC50 at 48 h,[9]; PCS-210-010 adipocytes,71.9 µM
same,Activity,"[9]; pcs-210-010, 48 h, time 48 hrs",Toxic
same,Activity,[10],Toxic
same,Activity,[11],Toxic
same,Activity,[12],Toxic
same,Activity,[13],Toxic
same,Activity,[14],Non-Toxic
same,Activity,[15],Non-Toxic
same,Activity,[16],Non-Toxic
same,Activity,[17],Non-Toxic
same,inhibition,[18],Active
same,inhibition,[19],Active
same,inhibition,[20],Active
same,inhibition,[21],Active
same,inhibition,[22],Dde
same,inhibition,[23],Dde
same,inhibition,[24],Dde
same,inhibition,[25],Dde
same,inhibition,[26],Dde
same,inhibition,[27],Dde
same,inhibition,[28],Dde
same,inhibition,[29],Dde
same,Activity,[30],Active
same,Activity,[31],Active
same,Activity,[32],Active
same,Activity,[33],Active
same,Activity,[34],Active
